Data from patent publication US10080807B2 (LIPOMEDIX PHARMACEUTICALS LTD., priority 2014, dated 2018).

How the values were obtained:
[1] = test system: C26 (colon carcinoma) mouse tumor model; test: Anti-tumor effect in colon carcinoma tumor model (Example 6); type: in vivo; conditions: C26 ip in BALB/c mice; gemcitabine 100 mg/kg ip or paclitaxel 15 mg/kg ip days 5, 8, 12, 15, alone or with prodrug 30 mg/kg iv; 45 days
Source text: C26 (colon carcinoma) mouse tumor model was used by injecting BALB/c F intraperitoneally with 1 million tumor cells.

[2] = test system: subcutaneous 4T1 breast mouse tumor model; conditions: day 5 iv; mitomycin C 6 mg/kg; prodrug 40 mg/kg; combination prodrug 30 mg/kg + liposome-entrapped doxorubicin 8 mg/kg; median tumor size
Source text: A subcutaneous 4T1 breast mouse tumor model was selected, and established by inoculating tumor cells subcutaneously into BALB/c f mice. The day of sc injection with tumor cells was defined as study day zero.

[3] = test system: N87 human gastric tumor model; conditions: N87 in footpad of nude mice; mitomycin C 5 mg/kg iv or prodrug 35 mg/kg iv days 6, 13; paclitaxel 15 mg/kg ip days 6, 10, 13, 17; mice with unacceptable toxicity removed
Description: An N87 human gastric tumor model was selected, and established by inoculating N87 tumor cells into the footpad of nude mice via subcutaneous (sc) injection. The day of sc injection with tumor cells was defined as study day zero.
The tumor size of the animals in each treatment group was measured.

[4] = test system: N87 human gastric tumor model; test: Anti-tumor effect in gastric tumor model (Example 7); type: in vivo
Source text: An N87 human gastric tumor model was selected, and established by inoculating 10^6 N87 tumor cells into the footpad of nude mice via subcutaneous (sc) injection. The day of sc injection with tumor cells was defined as study day zero.

[5] = test system: human A375 melanoma subcutaneous tumor model; conditions: prodrug 25 mg/kg iv days 11, 18; paclitaxel 15 mg/kg ip days 11, 14, 18, 21; alone or combined
Description: A human A375 melanoma subcutaneous tumor model was selected, and established by inoculating tumor cells into nude mice via subcutaneous (sc) injection. The day of sc injection with tumor cells was defined as study day zero.
The tumor size of the animals (n=6) in each treatment group was measured, and the median tumor size (in mm) is shown in FIG. 6 as a function of days post tumor inoculation.

| Structure (SMILES) | survival (in words) [1] | tumor growth (in words) [2] | tumor size (in words) [3] | animals tumor free at observation day 50 ([4]; N87 in footpad of nude mice, prodrug 25 mg/kg iv days 5, 12, paclitaxel 15 mg/kg ip days 5, 8, 12, 15) | reduction in tumor volume ([4]; individual tumor volumes measured to 48 days post inoculation (FIGS. 5C-5H)) | tumor growth (in words) [5] |
| --- | --- | --- | --- | --- | --- | --- |
| Nc1ccn([C@@H]2O[C@H](CO)[C@@H](O)C2(F)F)c(=O)n1 [gemcitabine, 2′-deoxy-2′,2′-difluoro-cytidine] | fared poorly, with nearly all animals failing to survive the study period |  |  |  |  |  |
| CO[C@@]12[C@H](COC(N)=O)C3=C(C(=O)C(C)=C(N)C3=O)N1C[C@@H]1N[C@@H]12 [mitomycin C] |  | continued growth in tumor size | continuous increase in tumor size |  |  |  |
| CC(=O)O[C@H]1C(=O)[C@@]2(C)[C@H]([C@H](OC(=O)c3ccccc3)[C@]3(O)C[C@H](OC(=O)[C@H](O)[C@@H](NC(=O)c4ccccc4)c4ccccc4)C(C)=C1C3(C)C)[C@]1(OC(C)=O)CO[C@@H]1C[C@@H]2O [paclitaxel] | fared poorly, with nearly all animals failing to survive the study period |  | continuous increase in tumor size | two of eight animals | Reduction in tumor volume was not observed | either a shorter plateau period of attenuated tumor growth or an increase in tumor growth sooner than animals treated with the combination therapy |
